US20100009936A1, “CHEMICAL COMPOUNDS” (PRAECIS PHARMACEUTICALS INCORPORATED, priority 2006, published 2010)

Experiments:
S1P-1 receptor [1] = biological target: T1, S1P-1 receptor (Homo sapiens, UniProt P21453); assay: GTPgS assay, S1P1; assay type: biochemical; design: expressed in transfected cells; membranes; conditions: [35S]-GTPgS, membranes of rat hepatoma cells expressing human S1P1; tested as trifluoracetic acid salt; read-out: pEC50 in the S1P1 assay (converted)
Description: (§1) For membrane preparations all steps were performed at 4° C. Rat hepatoma cells stably expressing the human S1P1 receptor or Rat Basophilic Leukaemia cells (RBL) stably expressing human S1P3 receptor were grown to 80% confluency before being harvested into 10 ml Phospho-Buffered Saline (PBS) and centrifuged at 1200 rpm for 5 minutes. After removal of the supernatant, the pellet was re-suspended and cells were homogenised within a glass Waring blender for 2 bursts of 15 secs in 200 mls of buffer (50 mM HEPES, […], 25 ug/ml bacitracin, 1 mM EDTA, 1 mM PMSF, 2 uM pepstatin A). The blender was plunged into ice for 5 mins after the first burst and 10-40 mins after the final burst to allow foam to dissipate. The material was then spun at 500 g for 20 mins and the supernatant spun for 36 mins at 48,000 g. The pellet was resuspended in the same buffer as above but without PMSF and pepstatin A. The material was then forced through a 0.6 mm needle, made up to the required volume, (usually ×4 the volume of the original cell pellet), aliquoted and stored frozen at −80° C. […]
(§2) After 30 minutes pre-coupling at 4° C. the bead and membrane suspension was dispensed into a white Greiner polypropylene LV384-well plate (5 ul/well), containing 0.1 ul of test compound or S1P. […] The final assay cocktail (10.1 ul) was centrifuged at 1000 rpm for 5 minutes then read immediately on a Viewlux. […]

human S1P3 receptor = biological target: T2, human S1P3 receptor (Homo sapiens, UniProt Q99500); assay: GTPgS assay, S1P3; assay type: biochemical; conditions: [35S]-GTPgS, membranes of RBL cells expressing human S1P3; tested as trifluoracetic acid salt; read-out: pEC50 in the S1P3 assay (converted)
T2 construct: expressed in transfected cells; membranes
Description: as §1, §2

C57Bl/6 mice = assay: Lymphopenia assay in mice; assay type: in vivo; conditions: 10 mg/Kg oral dose, male C57Bl/6 mice, blood taken after 6 hours
Description: Several of the compounds described herein were evaluated for the ability to induce lymphopenia in mice. Male C57Bl/6 mice were divided into groups of three. A control group received the 3% BSA vehicle only. The other groups received a single dose of either a specified dose of test compound in vehicle administered orally (PO) and intravenously (IV). After 6 hours, the mice were anesthetized with isoflurane and approximately 250 μL of blood was removed from the retroorbital sinus and collected in an EDTA microtainer, mixed with an anticoagulant and placed on a tilt table until complete blood count (CBC) analysis.

S1P-1 receptor [2] = biological target: T1, S1P-1 receptor; assay: [33P]sphingosine 1-phosphate binding assay, S1P-1 receptor; design: expressed in transfected cells; host or cells: HEK 293 T cells (transient, FuGENE 6), crude membranes
Description: In certain embodiments, the compounds of the invention selective for the S1P-1 receptor as compared to one or more of the other S1P receptors. For example, one set of compounds includes compounds which are selective for the S1P-1 receptor relative to the S1P-3 receptor. […] The EC50 of a compound is determined using the ^35S-GTPγS binding assay, as described in WO 03/061567, the entire contents of which are incorporated herein by reference. […] The IC50 of a compound is determined using the [^33P]sphingosine 1-phosphate binding assay, as described in Davis, M. D. et al., Sphingosine 1-Phosphate Analogs as Receptor Antagonists. J. Biol. Chem. (2005) 280:9833-9841, the entire contents of which are incorporated herein by this reference.
The terms “agonist” or “S1P-1 receptor agonist” as used herein include the compounds described herein which bind to and/or agonize the S1P-1 receptor. […] The compounds' IC50 for the S1P-1 receptor can be measured using the binding assays described in Example 13 or those described in WO 03/061567.
The ability of several of the compounds described herein to bind to the S1P-1 or S1P-3 receptor was also tested as follows.
For the membrane preparation, plasmid DNA was transfected into HEK 293 T cells using the FuGENE 6 transfection protocol (publicly available from Roche). […] Protein concentration was determined spectroscopically by Bradford protein assay. […]

T1 sequence (P21453 whole entry): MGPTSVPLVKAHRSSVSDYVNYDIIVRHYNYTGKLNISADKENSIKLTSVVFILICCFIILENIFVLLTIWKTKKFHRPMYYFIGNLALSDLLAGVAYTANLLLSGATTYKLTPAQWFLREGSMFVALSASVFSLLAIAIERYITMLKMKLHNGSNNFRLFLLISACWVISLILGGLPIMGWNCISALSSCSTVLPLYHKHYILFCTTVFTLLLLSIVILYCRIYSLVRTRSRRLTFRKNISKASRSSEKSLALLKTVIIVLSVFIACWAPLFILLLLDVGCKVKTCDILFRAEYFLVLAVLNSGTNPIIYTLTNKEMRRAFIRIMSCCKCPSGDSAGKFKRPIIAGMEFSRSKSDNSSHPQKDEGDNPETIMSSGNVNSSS
T2 sequence (Q99500 whole entry): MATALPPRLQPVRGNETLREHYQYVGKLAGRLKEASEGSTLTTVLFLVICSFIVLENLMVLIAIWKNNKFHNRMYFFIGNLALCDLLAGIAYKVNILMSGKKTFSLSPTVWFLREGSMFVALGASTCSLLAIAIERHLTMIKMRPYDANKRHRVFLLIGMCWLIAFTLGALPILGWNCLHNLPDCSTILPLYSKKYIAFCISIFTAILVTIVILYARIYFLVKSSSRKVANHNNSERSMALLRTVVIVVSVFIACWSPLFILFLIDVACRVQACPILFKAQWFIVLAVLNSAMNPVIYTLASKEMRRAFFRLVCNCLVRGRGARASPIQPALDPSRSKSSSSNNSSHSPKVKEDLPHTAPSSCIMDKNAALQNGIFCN

EC50 (S1P-1 receptor [1]) | EC50 (human S1P3 receptor) | IC50 (S1P-1 receptor [2]) | SMILES | lymphopenia (C57Bl/6 mice)
0.631 nM | 794 nM |  | CCCCCCCCOc1ccc(-c2nnc([C@@](C)(N)COP(=O)(O)O)s2)cc1C(F)(F)F [(S)-2-Amino-2-(5-(4-(octyloxy)-3-(trifluoromethyl)phenyl)-1,3,4-thiadiazol-2-yl)propyl dihydrogen phosphate] | 
 |  |  | CCCCCCCCOc1ccc(-c2nnc([C@@](C)(N)CO)s2)cc1C(F)(F)F [(S)-2-amino-2-(5-(4-(octyloxy)-3-(trifluoromethyl)phenyl)-1,3,4-thiadiazol-2-yl)propan-1-ol] | 77%
 |  |  | CCCCCCCCOc1ccc(-c2cnc([C@@](C)(N)CO)s2)cc1C(F)(F)F [(S)-2-amino-2-(5-(4-(octyloxy)-3-(trifluoromethyl)phenyl)thiazol-2-yl)propan-1-ol] | 75%
 |  | 3.23 nM | C[C@](N)(COP(=O)(O)O)c1nnc(-c2ccc(OCCCCc3ccccc3)c(C(F)(F)F)c2)s1 | 
3.16 nM | 316 nM |  | CCCCCCCCOc1ccc(-c2cnc([C@@](C)(N)COP(=O)(O)O)s2)cc1C(F)(F)F [(S)-2-amino-2-(5-(4-(octyloxy)-3-(trifluoromethyl)phenyl)thiazol-2-yl)propyl dihydrogen phosphate] | 
